The values that follow come from US8865448B2, “Aspergillus containing beta-glucosidase, beta-glucosidases and nucleic acids encoding the same” (Cleanvantage LLC, priority 2010, dated 2014).

For data set [1], the system named is Aspergillus saccharolyticus (strain AP, CBS 127449) beta-glucosidases, crude enzyme extract. Nature of the data set: Glucose tolerance / product inhibition, crude extract of strain AP. In kind it is biochemical. As for the experimental part: The fungal strain AP/Aspergillus saccharolyticus was grown on potato dextrose agar (Sigma) for sporulation. Spores were harvested after 7 days of growth by adding sterile water to the plate and scrape on the surface of the culture. The heavy spore suspension was filtered through Myra cloth. Two ml of the spore solution was inoculated into 200 ml seed medium (2.0 g/l wheat bran, 5 g/l corn steep powder, 0.25 g/l yeast extract, 0.75 g/l peptone, 1.4 g/l (NH4)2SO4, 2.0 g/l KH2PO4, 0.4 g/l CaCl2 2H2O, 0.3 g/l MgSO4H2O, 5.0 mg/l FeSO4, 1.6 mg/l MnSO4 7H2O, 1.4 mg/l ZnSO4 7H2O, 2.0 CoCl2 6H2O) in an 500 ml Erlenmeyer flask, and incubated at 30° C. for 2 days, shaking at 160 rpm. Solid state fermentation at approximately 30% TS was carried out adding 100 ml of the cultivated seed medium to 1 l of a solid state fermentation medium comprising of 343 g wheat bran (TS of 87.4%), 9 g corn steep powder, 557 ml Czapek liquid (3 g/l NaNO3, 1 g/l K2HPO4, 0.5 g/l KCl, 0.5 g/l MgSO4 7H2O, 0.01 g/l FeSO4 7H2O) (Samson et al., 2004a). […] The samples were incubated at 30° C. without shaking. After 7 days incubation, liquid was extracted from the medium by pressing the medium by hand using gloves. The extract was centrifuged at 10000 g, and the supernatant filtered through Whatman filter paper.
[…] The remaining activity (glucose tolerance) was measured spectrophotometrically by release of pNP at 50° C. reaction conditions, as described earlier. Triple determinations were performed. […] Triple determinations were performed.

The target in data set [2] is T1, Aspergillus saccharolyticus CBS 127449 beta-glucosidase BGL1, his-tagged, expressed in T. reesei, SEQ ID NO: 3 (without signal peptide SEQ ID NO: 4) (Aspergillus saccharolyticus, UniProt G0X2F9).
T1 construct: mature form lacks signal peptide 1-19
T1 sequence (G0X2F9 20-860): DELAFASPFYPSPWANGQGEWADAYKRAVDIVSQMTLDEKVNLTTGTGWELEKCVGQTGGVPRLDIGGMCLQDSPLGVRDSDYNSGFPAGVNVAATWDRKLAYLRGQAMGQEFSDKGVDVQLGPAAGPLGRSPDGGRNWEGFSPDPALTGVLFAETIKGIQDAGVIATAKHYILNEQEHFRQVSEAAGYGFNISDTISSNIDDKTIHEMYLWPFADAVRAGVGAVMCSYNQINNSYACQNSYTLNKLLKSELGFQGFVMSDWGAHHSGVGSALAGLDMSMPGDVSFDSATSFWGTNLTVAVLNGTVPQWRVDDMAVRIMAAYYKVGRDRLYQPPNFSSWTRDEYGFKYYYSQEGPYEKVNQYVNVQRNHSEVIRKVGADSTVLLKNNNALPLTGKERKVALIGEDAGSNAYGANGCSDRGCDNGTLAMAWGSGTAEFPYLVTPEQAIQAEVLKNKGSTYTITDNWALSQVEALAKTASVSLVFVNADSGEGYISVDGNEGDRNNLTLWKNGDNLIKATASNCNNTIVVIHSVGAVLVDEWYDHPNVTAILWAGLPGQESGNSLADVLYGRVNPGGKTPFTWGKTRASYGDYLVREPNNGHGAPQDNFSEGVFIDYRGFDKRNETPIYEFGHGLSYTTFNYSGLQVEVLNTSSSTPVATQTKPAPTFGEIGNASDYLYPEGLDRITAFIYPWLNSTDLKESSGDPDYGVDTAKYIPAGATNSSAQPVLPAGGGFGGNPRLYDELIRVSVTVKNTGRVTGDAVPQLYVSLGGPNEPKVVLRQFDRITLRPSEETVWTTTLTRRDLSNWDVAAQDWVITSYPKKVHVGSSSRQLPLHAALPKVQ
The experiment in a line: Glucose inhibition, purified BGL1. In kind it is biochemical. As to conditions: pNPG as substrate (5 mM), 50° C., pH 4.8. The method, then: (§1) For testing glucose tolerance, 5 mM pNPG in NaCltrate buffer pH 4.8 was used as substrate with different glucose amounts added, ranging final glucose concentrations of 0-280 mM. The remaining activity (glucose tolerance) was measured spectrophotometrically by release of pNP at 50° C. reaction conditions, as described earlier. Triple determinations were performed. […] Triple determinations were performed.
The his-tagged beta-glucosidases were purified on the ÄKTApurifier system with UNICORN software, using a HisTrap HP 5 ml […] column (GE Healthcare), run at a flow rate of 5 ml/min. The column was equilibrated with 5CV of binding buffer (20 mM sodium phosphate, 0.5M NaCl, pH 7.4), 100 ml sample was loaded onto the column, followed by washing with binding buffer till the absorbance reached the baseline. The his-tagged beta-glucosidases were eluted with 3CV elution buffer (20 mM sodium phosphate, 0.5M NaCl, 500 mM imidazole, pH 7.4) and the peak (1 CV) collected by monitoring the absorbance.
(§2) Michaelis Menten kinetics, glucose tolerance, termostability, pH optimum, and cellodextrin hydrolysis were carried out as described in EXAMPLE 1.

Data set [3] deals with Cellic CTec beta-glucosidases, commercial preparation. Nature of the data set: Glucose tolerance / product inhibition, Cellic CTec. In kind it is biochemical. As for the experimental part: as §1
The test system of data set [4] is Novozym 188 beta-glucosidase (Aspergillus niger), commercial preparation. Nature of the data set: Glucose tolerance / product inhibition, Novozym 188. Format: biochemical. As for the experimental part: as §1
Substrate in data set [5]: OC[C@H]1O[C@@H](O[C@H]2[C@H](O)[C@@H](O)C(O)O[C@@H]2CO)[C@H](O)[C@@H](O)[C@@H]1O
The experiment in a line: purified protein, by the assay type. Conditions: other: cellobiose as substrate, 50° C., pH 4.8, Hanes plot.

Data set [6] in a line: pH profile of beta-glucosidase activity on pNPG. As to conditions: 50 C. In kind it is biochemical. The method, then: For testing the pH optimum of the enzyme extracts, they were assayed at 50° C. with 5 mM pNPG in Citrate Phosphate buffer at different pH ranging from 2.65 to 7.25. Endoglucanase activity of Celluclast 1.5 L was assayed with AZO-CMC as described by the manufacturer (Megazyme), but testing the same pH range 2.65-7.25 as for the pNPG assay.
as §2

Data set [7] in a line: Thermostability: remaining beta-glucosidase activity after incubation at different temperatures. Format: physicochemical. As for the experimental part:
For testing the thermostability of the enzyme extract, aliquots of the extracts were incubated in PCR tubes in a thermocycler with temperature gradient option at 12 different temperatures from 48.5 to 67.0° C. for different time periods (0-4 hours) followed by assaying the activity at 50° C. with 5 mM pNPG in NaCltrate buffer pH 4.8 as substrate. The rate of denaturation, kD, was calculated as the slope of a semi-logaritmic plot of remaining activity vs incubation time. The half life was calculated as: T1/2=ln(2)/kD.
as §2

Data set [8] can be described thus: Hydrolysis of cellodextrins (cellohexaose). Format: biochemical. As to conditions: 50 C, pH 4.8, 30 min time course. The method, then:
Hydrolysis of cellohexaose was carried out by mixing, in the ratio 1:1, 0.2 mM cellohexaose in 50 mM NaCltrate buffer pH 4.8 and enzyme diluted in 50 mM NaCltrate buffer pH 4.8 to a concentration of 3.7 μg/ml. The reaction was incubated at 50° C. and for a period of 30 min, 100 μl sample was placed on ice every 5 min. 100 μl 200 mM NaOH was added to terminate the reaction, and after another 1 fold dilution with 100 mM NaOH, the samples were analyzed at Dionex ICS3000 using gradient elution: 0-30% eluent B in 26 min followed by 2 min washing with 50% eluent B (0.5 M NaAcetate in 100 mM NaOH) and 5 min re-equilibrating with 100% eluent A (100 mM NaOH).
as §2

[9] abbreviates: cellobiose as substrate, product and substrate in equal concentrations.
[10] abbreviates: cellobiose as substrate, twice the concentration of glucose compared to cellobiose.
[11] abbreviates: pNPG as substrate, product concentration 12 times higher than the substrate concentration.

As for `OC[C@H]1OC(O)[C@H](O)[C@@H](O)[C@@H]1O` (stereo partly drawn) [glucose], the “glucose concentration at half the maximum activity, relative to substrate concentration” value is listed as 36 × the substrate concentration in data set [1] (5 mM pNPG as substrate), 23 × the substrate concentration in data set [3] (5 mM pNPG as substrate) and 12 × the substrate concentration in data set [4] (5 mM pNPG as substrate). The “remaining activity with glucose” value is “around 80%” in data set [1] (setting [9]); 50% in data set [1] (setting [10]); above 80% in data set [1] (setting [11]); “approx 75%” in data set [3] (setting [11]); “around 80%” in data set [4] (setting [9]); 50% in data set [4] (setting [10]). For the same molecule, the “remaining activity with glucose” value in data set [4] (setting [11]) was “below 40%”. Besides, the “product (glucose) concentration at reduction in activity to 50%” value in data set [2] is recorded as 30 times greater than the substrate concentration. For the same molecule, the IC50 in data set [4] (5 mM pNPG as substrate, 50° C., pH 4.8, calculated, read-out: glucose concentration at half the maximum activity) was 60 mM.

B1: Aspergillus saccharolyticus CBS 127449 beta-glucosidase BGL1, his-tagged, expressed in T. reesei, SEQ ID NO: 3 (without signal peptide SEQ ID NO: 4) … (protein)
chain: T1 sequence (G0X2F9 20-860)
On to B1, for which the Km in data set [5] is 1900 µM.

B2: BGL1: GH family 3 beta-glucosidase of Aspergillus saccharolyticus; his-tagged, expressed in T. reesei and purified for characterisation (protein, listed as Aspergillus saccharolyticus)
chain: T1 sequence (G0X2F9 20-860)
modifications: His tag
notes: GH family 3 beta-glucosidase of Aspergillus saccharolyticus; his-tagged, expressed in T. reesei and purified for characterisation
Consider B2, for which, in data set [6], the “activity at basic conditions” value was “below 10%”, the “activity within pH range 3.8-4.8” value was “above 90 % of maximum” and the pH optimum is around 4.2 pH. For the same molecule, in data set [7] (60 C), the “activity retained after 2 hours of incubation” value is “more than 90%” and the “activity retained after 4 hours of incubation” value is listed as “more than 70%”. In data set [7] (67 C), the “activity retained after 2 hours of incubation” value is “approx. 10%”. The “stability at 50 C” value in data set [7] (purified BGL1) is on record as “stable throughout the incubation period”. Besides, in data set [7] (purified BGL1, from 62 C up to 65 C), the half-life result is on record as “less than 2.5 hours”. Also, the calculated half-life entry in data set [7] (purified BGL1, temperatures above 60 C) was “approximately 6 hours”. Further, the “stability at temperatures up to 58 C” value in data set [7] (up to four hours of incubation) is “fairly stable”. For the same molecule, the “mode of action in hydrolysis of cellohexaose” value in data set [8] is reported as “hydrolyzes the different cellodextrins through exohydrolase action”.
